According to patent US20120277257A1, “Methods of Treating Diseases, Pharmaceutical Compositions, and Pharmaceutical Dosage Forms” (MYREXIS, INC., priority 2009, published 2012):
Where two headings read alike, the source gives them in different places.

Tests used:
[1] = system: NCI-N87 Her2+ gastric cancer; experiment: NCI-N87 (Her2+) gastric cancer xenograft in athymic nude mice; format: in vivo
Experimental: The efficacy of Compound 1 was compared to that of SNX-5422 (Serenex, Pfizer, Inc.) on the growth of NCI-N87 (Her2+) human gastric cancer cells as a xenograft in athymic nude mice model. Animals were dosed with either 200 mg/kg of Compound 1 on days 1 through 21 or 40 mg/kg of SNX-5422 thrice weekly for three weeks. Tumor volumes and body weights were determined from Days 1 to 39.
Five million NCI-N87 cells were implanted subcutaneously in the right flank of female nude mice (Hsd:athymic nude-Foxn1^nu). When the median tumor volume was approximately 123 mm^3, mice were randomized into three cohorts of ten animals. One cohort was dosed orally with vehicle, one cohort was dosed orally with Compound 1 (200 mg/kg) formulated in vehicle, and one cohort was dosed orally with SNX-5422 (40 mg/kg) formulated in dimethylacetamide/polyethylene glycol 300. Vehicle and Compound 1 were administered on days 1-21 and SNX-5422 was administered thrice weekly on Days 1, 3, 5, 8, 10, 12, 15, 17 and 19. The mice were observed daily for mortality and signs of toxicity.
Xenografted mice bearing N-87 tumors (median volume ˜125 mm^3) were dosed orally with Compound 1 for three weeks with the dosing schedules indicated in FIG. 4.
Additionally, xenografted mice bearing N-87 tumors (median volume ˜115 mm^3) were dosed orally with Compound 1 for twenty-one days at 200 mg/kg, once daily or 100 mg/kg, twice-daily as indicated in FIG. 5. Tumor growth inhibition (TGI) was monitored up to Day 39.

[2] = Oral pharmacokinetics in female Sprague Dawley rats, single dose versus two doses; format: in vivo; conditions: for Cmax / AUC(0-t) / concentration at 24 h: female, Sprague Dawley, rat, plasma; for AUC(0-t): read-out: AUC(0-24); for concentration at 24 h: read-out: C24hr
Experimental: Female Sprague Dawley rats (n=4 or 5) were dosed orally once with 50 mg/kg (See FIG. 9A) or twice with 25 mg/kg (See FIG. 9B) of Compound 1. Pharmacokinetic parameters are outlined in Table 4 below. […] Effective plasma concentrations of Compound 1 were maintained with twice a day dosing.

DU-145 prostate cancer = DU-145 prostate cancer xenograft; format: in vivo, mice; conditions: 200 mg/kg oral, 5-days-on/2-days-off, after 5 cycles
[3] = 25 mg/kg oral, two doses 12 h apart

C[C@H](O)C(=O)N1CCC(CCn2c(Sc3cc4c(cc3Br)OCO4)nc3c(N)ncnc32)CC1 [Compound 1, (2S)-1-[4-(2-{6-amino-8-[(6-bromo-1,3-benzodioxol-5-yl)thio]-9H-purin-9-yl}ethyl)piperidin-1-yl]-1-oxopropan-2-ol]
tumor regression ([1]; 200 mg/kg oral, 5-days-on/2-days-off, after 3 cycles): 44% regression after 3 cycles
tumor regression ([1]; 200 mg/kg oral, QOD (once every-other-day) for three weeks, Day 21): 7%
tumor regression ([1]; 200 mg/kg oral, daily for 21 days, Day 21 (dosing schedule study)): 40%
decrease in median tumor volume ([1]; 200 mg/kg oral, days 1-21, by day 21): 40%
TGI (tumor growth inhibition) ([1]; 200 mg/kg oral, twice weekly for three weeks, Day 21): 100%
TGI (tumor growth inhibition) ([1]; 200 mg/kg oral, weekly (Days 1, 8, 15), Day 21, p = 0.1): 54% TGI (p = 0.1) Day 21
TGI (tumor growth inhibition) ([1]; 400 mg/kg oral, twice weekly for three weeks, Day 21): 95%
tumor growth inhibition compared with SNX-5422 ([1]; Compound 1 200 mg/kg daily vs SNX-5422 40 mg/kg thrice weekly): as effective as SNX-5422
Cmax [2, 3]: 1110 ng/mL
AUC(0-t) [2, 3]: 5120 ng·h/mL
concentration at 24 h [2, 3]: 46.7 ng/mL
Cmax ([2]; 50 mg/kg oral, single dose): 2120 ng/mL
AUC(0-t) ([2]; 50 mg/kg oral, single dose): 5840 ng·h/mL
concentration at 24 h ([2]; 50 mg/kg oral, single dose): 1.5 ng/mL
plasma concentration at 24 h with BID dosing versus single dose ([2]; oral): significantly higher
TGI (tumor growth inhibition), average (DU-145 prostate cancer): Average of ~80% TGI after 5
